In patent publication US6339045B1, “N-(unsubstituted or substituted)-4-substituted-6-(unsubstituted or substituted)phenoxy-2-pyridinecarboxamides or thiocarboxamides, processes for producing the same, and herbicides” (Kureha Kagaku Kogyo Kabushiki Kaisha, priority 1995, dated 2002):

Experiments:
Test in all cases: Herbicidal effect by foliage and soil treatment
Assay type in all cases: in vivo
Details in all cases: 10 g ai/10a, evaluated after 14 days
[1] = system: sicklepod (Cassia obtusifolia)
How it was run: (§1)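 Read-out: rated growth inhibition relative to non-treated plants 14 days after spraying. Young plants (cotyledon to two leaves) received a foliage-and-soil spray of compound in aqueous Tween 20 at a controlled rate, greenhouse at 19–25 °C.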

[2] = system: ivyleafspeedwell (Veronica hederaefolia)
How it was run: as §1

[3] = system: cleavers (Galium aparine)
How it was run: as §1

[4] = system: black nightshade (Solanum nigrum)
How it was run: as §1

[5] = system: velvetleaf (Abutilon theophrasti)
How it was run: as §1

[6] = system: redroot pigweed (Amaranthus retroflexus)
How it was run: as §1

[7] = system: field bindweed (Convolvulus arvensis)
How it was run: as §1

[8] = system: kediock (Sinapis arvensis)
How it was run: as §1

[9] = system: common chickweed (Stellaria media)
How it was run: as §1

[10] = system: common blackjack (Bidens pilosa)
How it was run: as §1

[11] = system: wild chamomile (Matricaria chamomilla)
How it was run: as §1

## COCCNC(=O)c1cc(OC)cc(Oc2cccc(C(F)(F)F)c2)n1 [Compound I-61]
[1]
  herbicidal activity rating, CO (Cassia obtusifolia): 5 (percentage of weeds killed was not less than 80%)
[2]
  herbicidal activity rating, VH (Veronica hederaefolia): 5 (percentage of weeds killed was not less than 80%)
[3]
  herbicidal activity rating, GA (Galium aparine): 5 (percentage of weeds killed was not less than 80%)
[4]
  herbicidal activity rating, SN (Solanum nigrum): 5 (percentage of weeds killed was not less than 80%)
[5]
  herbicidal activity rating, AT (Abutilon theophrasti): 4 (percentage of weeds killed was not less than 60% and less than 80%)
[6]
  herbicidal activity rating, AR (Amaranthus retroflexus): 5 (percentage of weeds killed was not less than 80%)
[7]
  herbicidal activity rating, CA (Convolvulus arvensis): 3 (percentage of weeds killed was not less than 40% and less than 60%)
[8]
  herbicidal activity rating, SA (Sinapis arvensis): 5 (percentage of weeds killed was not less than 80%)
[9]
  herbicidal activity rating, SM (Stellaria media): 5 (percentage of weeds killed was not less than 80%)
[10]
  herbicidal activity rating, BP (Bidens pilosa): 2 (percentage of weeds killed was not less than 20% and less than 40%)
[11]
  herbicidal activity rating, MC (Matricaria chamomilla): 5 (percentage of weeds killed was not less than 80%)

## COc1cc(Oc2cccc(C(F)(F)F)c2)nc(C(=O)NCCSC)c1 [Compound I-62]
[1]
  herbicidal activity rating, CO (Cassia obtusifolia): 5 (percentage of weeds killed was not less than 80%)
[2]
  herbicidal activity rating, VH (Veronica hederaefolia): 5 (percentage of weeds killed was not less than 80%)
[3]
  herbicidal activity rating, GA (Galium aparine): 5 (percentage of weeds killed was not less than 80%)
[4]
  herbicidal activity rating, SN (Solanum nigrum): 5 (percentage of weeds killed was not less than 80%)
[5]
  herbicidal activity rating, AT (Abutilon theophrasti): 3 (percentage of weeds killed was not less than 40% and less than 60%)
[6]
  herbicidal activity rating, AR (Amaranthus retroflexus): 5 (percentage of weeds killed was not less than 80%)
[7]
  herbicidal activity rating, CA (Convolvulus arvensis): 4 (percentage of weeds killed was not less than 60% and less than 80%)
[8]
  herbicidal activity rating, SA (Sinapis arvensis): 5 (percentage of weeds killed was not less than 80%)
[9]
  herbicidal activity rating, SM (Stellaria media): 5 (percentage of weeds killed was not less than 80%)
[10]
  herbicidal activity rating, BP (Bidens pilosa): 4 (percentage of weeds killed was not less than 60% and less than 80%)
[11]
  herbicidal activity rating, MC (Matricaria chamomilla): 4 (percentage of weeds killed was not less than 60% and less than 80%)

## COc1cc(Oc2cccc(C(F)(F)F)c2)nc(C(=O)NCCS(C)(=O)=O)c1 [Compound I-63]
[1]
  herbicidal activity rating, CO (Cassia obtusifolia): 5 (percentage of weeds killed was not less than 80%)
[2]
  herbicidal activity rating, VH (Veronica hederaefolia): 5 (percentage of weeds killed was not less than 80%)
[3]
  herbicidal activity rating, GA (Galium aparine): 5 (percentage of weeds killed was not less than 80%)
[4]
  herbicidal activity rating, SN (Solanum nigrum): 5 (percentage of weeds killed was not less than 80%)
[5]
  herbicidal activity rating, AT (Abutilon theophrasti): 4 (percentage of weeds killed was not less than 60% and less than 80%)
[6]
  herbicidal activity rating, AR (Amaranthus retroflexus): 5 (percentage of weeds killed was not less than 80%)
[7]
  herbicidal activity rating, CA (Convolvulus arvensis): 5 (percentage of weeds killed was not less than 80%)
[8]
  herbicidal activity rating, SA (Sinapis arvensis): 5 (percentage of weeds killed was not less than 80%)
[9]
  herbicidal activity rating, SM (Stellaria media): 5 (percentage of weeds killed was not less than 80%)
[10]
  herbicidal activity rating, BP (Bidens pilosa): 4 (percentage of weeds killed was not less than 60% and less than 80%)
[11]
  herbicidal activity rating, MC (Matricaria chamomilla): 4 (percentage of weeds killed was not less than 60% and less than 80%)

## CCSCCNC(=O)c1cc(OC)cc(Oc2cccc(C(F)(F)F)c2)n1 [Compound I-67, N-{2-(ethylmercapto)ethyl}-4-methoxy-6-{3-(trifluoromethyl)phenoxy}-2-pyridine carboxamide]
[1]
  herbicidal activity rating, CO (Cassia obtusifolia): 5 (percentage of weeds killed was not less than 80%)
[2]
  herbicidal activity rating, VH (Veronica hederaefolia): 5 (percentage of weeds killed was not less than 80%)
[3]
  herbicidal activity rating, GA (Galium aparine): 5 (percentage of weeds killed was not less than 80%)
[4]
  herbicidal activity rating, SN (Solanum nigrum): 5 (percentage of weeds killed was not less than 80%)
[5]
  herbicidal activity rating, AT (Abutilon theophrasti): 4 (percentage of weeds killed was not less than 60% and less than 80%)
[6]
  herbicidal activity rating, AR (Amaranthus retroflexus): 5 (percentage of weeds killed was not less than 80%)
[7]
  herbicidal activity rating, CA (Convolvulus arvensis): 5 (percentage of weeds killed was not less than 80%)
[8]
  herbicidal activity rating, SA (Sinapis arvensis): 5 (percentage of weeds killed was not less than 80%)
[9]
  herbicidal activity rating, SM (Stellaria media): 4 (percentage of weeds killed was not less than 60% and less than 80%)
[10]
  herbicidal activity rating, BP (Bidens pilosa): 3 (percentage of weeds killed was not less than 40% and less than 60%)
[11]
  herbicidal activity rating, MC (Matricaria chamomilla): 3 (percentage of weeds killed was not less than 40% and less than 60%)

## COc1cc(Oc2cccc(C(F)(F)F)c2)nc(C(=O)NCCC#N)c1 [Compound I-71]
[1]
  herbicidal activity rating, CO (Cassia obtusifolia): 5 (percentage of weeds killed was not less than 80%)
[2]
  herbicidal activity rating, VH (Veronica hederaefolia): 5 (percentage of weeds killed was not less than 80%)
[3]
  herbicidal activity rating, GA (Galium aparine): 5 (percentage of weeds killed was not less than 80%)
[4]
  herbicidal activity rating, SN (Solanum nigrum): 5 (percentage of weeds killed was not less than 80%)
[5]
  herbicidal activity rating, AT (Abutilon theophrasti): 4 (percentage of weeds killed was not less than 60% and less than 80%)
[6]
  herbicidal activity rating, AR (Amaranthus retroflexus): 5 (percentage of weeds killed was not less than 80%)
[7]
  herbicidal activity rating, CA (Convolvulus arvensis): 5 (percentage of weeds killed was not less than 80%)
[8]
  herbicidal activity rating, SA (Sinapis arvensis): 5 (percentage of weeds killed was not less than 80%)
[9]
  herbicidal activity rating, SM (Stellaria media): 5 (percentage of weeds killed was not less than 80%)
[10]
  herbicidal activity rating, BP (Bidens pilosa): 5 (percentage of weeds killed was not less than 80%)
[11]
  herbicidal activity rating, MC (Matricaria chamomilla): 4 (percentage of weeds killed was not less than 60% and less than 80%)

## COc1cc(Oc2cccc(C(F)(F)F)c2)nc(C(=O)NCC(C)C)c1 [Compound I-72]
[1]
  herbicidal activity rating, CO (Cassia obtusifolia): 5 (percentage of weeds killed was not less than 80%)
[2]
  herbicidal activity rating, VH (Veronica hederaefolia): 5 (percentage of weeds killed was not less than 80%)
[3]
  herbicidal activity rating, GA (Galium aparine): 5 (percentage of weeds killed was not less than 80%)
[4]
  herbicidal activity rating, SN (Solanum nigrum): 5 (percentage of weeds killed was not less than 80%)
[5]
  herbicidal activity rating, AT (Abutilon theophrasti): 4 (percentage of weeds killed was not less than 60% and less than 80%)
[6]
  herbicidal activity rating, AR (Amaranthus retroflexus): 5 (percentage of weeds killed was not less than 80%)
[7]
  herbicidal activity rating, CA (Convolvulus arvensis): 5 (percentage of weeds killed was not less than 80%)
[8]
  herbicidal activity rating, SA (Sinapis arvensis): 5 (percentage of weeds killed was not less than 80%)
[9]
  herbicidal activity rating, SM (Stellaria media): 5 (percentage of weeds killed was not less than 80%)
[10]
  herbicidal activity rating, BP (Bidens pilosa): 5 (percentage of weeds killed was not less than 80%)
[11]
  herbicidal activity rating, MC (Matricaria chamomilla): 5 (percentage of weeds killed was not less than 80%)

## CCC(C)NC(=O)c1cc(OC)cc(Oc2cccc(C(F)(F)F)c2)n1 (stereo not shown) [Compound I-73]
[1]
  herbicidal activity rating, CO (Cassia obtusifolia): 5 (percentage of weeds killed was not less than 80%)
[2]
  herbicidal activity rating, VH (Veronica hederaefolia): 5 (percentage of weeds killed was not less than 80%)
[3]
  herbicidal activity rating, GA (Galium aparine): 5 (percentage of weeds killed was not less than 80%)
[4]
  herbicidal activity rating, SN (Solanum nigrum): 5 (percentage of weeds killed was not less than 80%)
[5]
  herbicidal activity rating, AT (Abutilon theophrasti): 5 (percentage of weeds killed was not less than 80%)
[6]
  herbicidal activity rating, AR (Amaranthus retroflexus): 5 (percentage of weeds killed was not less than 80%)
[7]
  herbicidal activity rating, CA (Convolvulus arvensis): 5 (percentage of weeds killed was not less than 80%)
[8]
  herbicidal activity rating, SA (Sinapis arvensis): 5 (percentage of weeds killed was not less than 80%)
[9]
  herbicidal activity rating, SM (Stellaria media): 5 (percentage of weeds killed was not less than 80%)
[10]
  herbicidal activity rating, BP (Bidens pilosa): 4 (percentage of weeds killed was not less than 60% and less than 80%)
[11]
  herbicidal activity rating, MC (Matricaria chamomilla): 4 (percentage of weeds killed was not less than 60% and less than 80%)

## COc1cc(Oc2cccc(C(F)(F)F)c2)nc(C(=O)NCCF)c1 [Compound I-74]
[1]
  herbicidal activity rating, CO (Cassia obtusifolia): 5 (percentage of weeds killed was not less than 80%)
[2]
  herbicidal activity rating, VH (Veronica hederaefolia): 5 (percentage of weeds killed was not less than 80%)
[3]
  herbicidal activity rating, GA (Galium aparine): 5 (percentage of weeds killed was not less than 80%)
[4]
  herbicidal activity rating, SN (Solanum nigrum): 5 (percentage of weeds killed was not less than 80%)
[5]
  herbicidal activity rating, AT (Abutilon theophrasti): 5 (percentage of weeds killed was not less than 80%)
[6]
  herbicidal activity rating, AR (Amaranthus retroflexus): 5 (percentage of weeds killed was not less than 80%)
[7]
  herbicidal activity rating, CA (Convolvulus arvensis): 5 (percentage of weeds killed was not less than 80%)
[8]
  herbicidal activity rating, SA (Sinapis arvensis): 5 (percentage of weeds killed was not less than 80%)
[9]
  herbicidal activity rating, SM (Stellaria media): 5 (percentage of weeds killed was not less than 80%)
[10]
  herbicidal activity rating, BP (Bidens pilosa): 5 (percentage of weeds killed was not less than 80%)
[11]
  herbicidal activity rating, MC (Matricaria chamomilla): 5 (percentage of weeds killed was not less than 80%)
